Experimental data reported in patent US5354862A, “Preparation and the use of halopropargylated cyclic quaternary ammonium compounds as antimicrobial agents” (Rohm and Haas Company, priority 1993, dated 1994).
Like-named read-outs stand apart in the source and are kept apart here.

Assays:
Assay in all cases: Broth two-fold serial dilution MIC test
[1] = tested on: Escherichia coli; format: cell-based, Escherichia coli (ATCC 11229); details: Ecol
Source text: (§1) A minimum inhibitory concentration (MIC) value is obtained using a broth, two-fold serial dilution test performed as follows: A stock solution or dispersion of the test compound, typically at a concentration of 1%, is made in a 5:3:2 solvent solution of acetone. methanol, and water. A volume of the stock solution is dispensed into culture media to give an initial starting test concentration of 500 ppm compound.
(§2) When the test is ready to be done, each vessel in the dilution series, except the first vessel, contains an equal volume of compound free broth. The first vessel contains twice the volume of broth with the starting concentration of test compound. One half of the broth from the first vessel is transferred to the second vessel- After being mixed, one half the resulting volume is removed from the second vessel and transferred to the third vessel. The entire cycle is repeated sufficiently to give a series of concentrations amounting to 500, 250, 125, 63, 31, 16, 8, and 4, 2, 1, 0.5, 0.25 ppm respectively.
(§3) Each vessel is then inoculated with a cell suspension of the appropriate test organism. Bacteria are grown in broth, fungi on agar slants for a time and at a temperature appropriate to the species being tested, and algae are a mixture of green algae and blue-green bacteria grown in a nutrient media. At the end of the growth period, in the case of bacteria, the broth is vortexed to disperse the cells.
(§4) In the case of fungi, the spores are harvested by pipetting water onto the slant and dislodging the spores with a sterile loop. The cell/spore suspension is standardized by controlling incubation time, temperature, and the volume of the diluent. The suspension is then used to inoculate the vessels containing the broth compound.
(§5) The vessels are then incubated at the appropriate temperature. After the incubation, the vessels are examined for growth/no growth. The minimum inhibitory concentration (MIC) is defined as the lowest concentration of compound that results in complete inhibition of growth of the test organism.

[2] = tested on: Aspergillus niger; format: cell-based, Aspergillus niger (ATCC 6275); details: Anig, TSB media
Source text: as §1, §2, §3, §4, §5
4. Aspergillus niger 6275 Anig

[3] = tested on: Staphylococcus aureus; format: cell-based, Staphylococcus aureus (ATCC 6538); details: Saur
Source text: as §1, §2, §3, §4, §5
2. Staphylococcus aureus

[4] = tested on: Pseudomonas aeruginosa; format: cell-based, Pseudomonas aeruginosa (ATCC 15442); details: Psae
Source text: as §1, §2, §3, §4, §5
1. Pseudomonas aeruginosa

[5] = Escherichia coli, Table 2, TSB media, read-out: MIC
[6] = Aspergillus niger, Table 2, read-out: MIC
[7] = Staphylococcus aureus, Table 2, M9G media, read-out: MIC
[8] = Staphylococcus aureus, Table 2, TSB media, read-out: MIC
[9] = Pseudomonas aeruginosa, Table 2, M9G media, read-out: MIC
[10] = Pseudomonas aeruginosa, Table 2, TSB media, read-out: MIC
[11] = Escherichia coli, Table 2, M9G media, read-out: MIC

Row | SMILES | MIC ([1]; Table 2, M9G media) [ppm] | MIC ([1]; Table 2, TSB media) [ppm] | MIC ([2]; Table 2) [ppm] | MIC ([3]; Table 2, M9G media) [ppm] | MIC ([3]; Table 2, TSB media) [ppm] | MIC ([4]; Table 2, M9G media) [ppm] | MIC ([4]; Table 2, TSB media) [ppm] | MIC [1, 5] [µg/mL] | MIC [2, 6] [µg/mL] | MIC [3, 7] [µg/mL] | MIC [3, 8] [µg/mL] | MIC [4, 9] [µg/mL] | MIC [4, 10] [µg/mL] | MIC [1, 11] [µg/mL] | MIC ([1]; Escherichia coli, Table 3 comparison, TSB media, read-out: MIC) [µg/mL] | MIC ([2]; Aspergillus niger, Table 3 comparison, read-out: MIC) [µg/mL] | MIC ([3]; Staphylococcus aureus, Table 3 comparison, M9G media, read-out: MIC) [µg/mL] | MIC ([3]; Staphylococcus aureus, Table 3 comparison, TSB media, read-out: MIC) [µg/mL] | MIC ([4]; Pseudomonas aeruginosa, Table 3 comparison, M9G media, read-out: MIC) [µg/mL] | MIC ([4]; Pseudomonas aeruginosa, Table 3 comparison, TSB media, read-out: MIC) [µg/mL]
1 | CCCCCCCCCCCCC[N+]1(CC#CI)CCCC1 [Compound 36, 1-tridecyl-1-(3-iodopropargyl)-pyrrolidinium methanesulfonate] | 2 | 8 | 1 | < 0.25 | < 0.25 | 32 | 63 |  |  |  |  |  |  |  |  |  |  |  |  | 
2 | CCCCCCOC(=O)CCCCC[N+]1(CC#CI)CCOCC1 [Compound 81] | 64 |  |  |  |  |  |  | 64 | 125 | 4 | 16 | > 500 | > 500 |  |  |  |  |  |  | 
3 | CCCCCCCCCCOC(=O)CC[N+]1(CC#CI)CCCC1 [Compound 98, l-[2-(decyloxycarbonyl)]ethyl-1-(3-iodopropargyl)-pyrrolidinium methanesulfonte] | 16 | 32 | 16 | 8 | 32 | 500 | 500 |  |  |  |  |  |  |  |  |  |  |  |  | 
4 | CCCCCCCCCCCCCC[N+]1(CC#CI)CC=CCC1 (stereo not drawn) [Compound 53, 1-(tetradecyl)-1-(3-iodopropargyl)-1,2,3,6-tetrahydropyridinium benzenesulfonate] |  |  |  |  |  |  |  | 1 | < 0.25 | < 0.25 | < 0.25 | 8 | 16 | 2 |  |  |  |  |  | 
5 | CCCCCCCCCC[N+]1(CC#CI)CCOCC1 [Compound 91, 4-decyl-4-(3-iodopropargyl)-morpholinium methanesulfonate] |  |  |  |  |  |  |  | 8 | 32 | 1 | 8 | 250 | > 500 | 4 |  |  |  |  |  | 
6 | CC[N+]1(CC#CI)CCOCC1 [Compound 94, 4-ethyl-4-(3-iodopropargyl)-morpholinium methanesulfonate] |  |  |  |  |  |  |  | 125 | > 500 | 500 | > 500 | > 500 | > 500 | 125 |  |  |  |  |  | 
7 | CCCCCCOC(=O)CCCCC[N+]1(CC#CI)CCOCC1 [Compound 83, 4-[5-(hexyloxycarbonyl)]pentyl-4-(3-iodopropargyl)-morpholinium methanesulfonate] | 16 | 32 | 125 | 4 | 8 | > 500 | > 500 |  |  |  |  |  |  |  |  |  |  |  |  | 
8 | CCCCCCCCCCCCCC[N+]1(CC#CI)CCC(C)CC1 (stereo not drawn) [Compound 52, 1-(tetradecyl)-1-(3-iodopropargyl)-4-methylpiperidinium benzenesulfonate] |  |  |  |  |  |  |  | 2 | < 0.25 | < 0.25 | < 0.25 | 16 | 16 | 8 |  |  |  |  |  | 
9 | CCCCCCCCCCCCCC[N+]1(CC#CI)CCCCC1C (stereo not drawn) [Compound 51, 1-(tetradecyl)-1-(3-iodopropargyl)-2-methylpiperidinium benzenesulfonate] |  | 2 |  | < 0.25 | < 0.25 | 16 | 16 |  | 0.5 |  |  |  |  | 4 |  |  |  |  |  | 
10 | CCCCCCCCCCCCCCCC[N+]1(CC#CI)CCOCC1 [Compound 40, 1-hexadecyl-1-(3-iodopropargyt)-morpholinium methanesulfonate] |  | < 0.25 | < 0.25 |  |  |  |  |  |  | < 0.25 | 0.5 | 4 | 4 | 0.5 |  |  |  |  |  | 
11 | CCCCCCCCCCCCCC[N+]1(CC#CI)CCOCC1 [Compound 86, 4-tetradecyl-4-(3-iodopropargyl)-morpholinium n-butylsulfonate] | 2 | 8 | 8 | 0.5 | 1 | 8 | 32 |  |  |  |  |  |  |  |  |  |  |  |  | 
12 | CCCCCCCCCCCCCCCC[N+]1(CC#CI)CCOCC1 [Compound 49, 4-hexadecyl-4-(3-iodopropargyl)-morpholinium 4-methylbenzenesulfonate] | 1 | 2 | 1 | < 0.25 | 0.5 | 8 | 8 |  |  |  |  |  |  |  |  |  |  |  |  | 
13 | CCCCCCCCCCCCC[N+]1(CC#CI)CCOCC1 [Compound 89, 4-tridecyl-4-(3-iodopropargyl)-morpholinium methanesulfonate] |  |  |  |  |  |  |  | 8 | 8 | 1 | 2 | 16 | 64 | 2 |  |  |  |  |  | 

More lines, now with the values ahead:

Row | MIC ([1]; Table 2, M9G media) [ppm] | MIC ([1]; Table 2, TSB media) [ppm] | MIC ([2]; Table 2) [ppm] | MIC ([3]; Table 2, M9G media) [ppm] | MIC ([3]; Table 2, TSB media) [ppm] | MIC ([4]; Table 2, M9G media) [ppm] | MIC ([4]; Table 2, TSB media) [ppm] | MIC [1, 5] [µg/mL] | MIC [2, 6] [µg/mL] | MIC [3, 7] [µg/mL] | MIC [3, 8] [µg/mL] | MIC [4, 9] [µg/mL] | MIC [4, 10] [µg/mL] | MIC [1, 11] [µg/mL] | MIC ([1]; Escherichia coli, Table 3 comparison, TSB media, read-out: MIC) [µg/mL] | MIC ([2]; Aspergillus niger, Table 3 comparison, read-out: MIC) [µg/mL] | MIC ([3]; Staphylococcus aureus, Table 3 comparison, M9G media, read-out: MIC) [µg/mL] | MIC ([3]; Staphylococcus aureus, Table 3 comparison, TSB media, read-out: MIC) [µg/mL] | MIC ([4]; Pseudomonas aeruginosa, Table 3 comparison, M9G media, read-out: MIC) [µg/mL] | MIC ([4]; Pseudomonas aeruginosa, Table 3 comparison, TSB media, read-out: MIC) [µg/mL] | SMILES
14 |  |  |  |  |  |  |  | 250 | 125 | 8 | 63 | > 250 | > 250 |  |  |  |  |  |  |  | OCCCCCCCCCCCC[N+]1(CC#CI)CCCCC1 [Compound 20, 1-(12-hydroxydodecyl)-1-(3-iodopropargyl)-piperidinium 4-methylbenzenesulfonate]
15 |  |  |  |  |  |  |  | 250 | 125 | 32 | 32 | 250 | 125 |  | 250 | 125 | 32 | 32 | 250 | 125 | C[N+]1(CC#CI)CCCCC1 [Compound 17, 1-Methyl-1-(3-Iodopropargyl)-Piperidinium 4-Methylbenzenesulfonate]
16 |  |  |  |  |  |  |  | > 500 | > 500 | 63 | 500 | > 500 | > 500 |  |  |  |  |  |  |  | OCCCCCCC[N+]1(CC#CI)CCCCC1 [Compound 24, 1-(7-hydroxyheptyl)-1-(3-iodopropargyl)-piperidinium-4methylbenzenesulfonate]
17 |  |  | 125 |  |  |  |  | 64 |  | 2 | 8 | > 500 | > 500 | 32 |  |  |  |  |  |  | CCCCCCOC(=O)CCCCC[N+]1(CC#CI)CCCC1 [Compound 82, 1-[5-(hexyloxycarbonyl)]pentyl-1-(3-iodopropargyl)-pyrrolidinium 4-methylbenzenesulfonate]
18 |  |  |  |  |  |  |  | 500 | 250 | 500 | 500 | > 500 | > 500 | > 500 |  |  |  |  |  |  | OCCCCCCC[N+]1(CC#CI)CCCC1 [Compound 4, 1-(7-hydroxyheptyl)-1-(3-iodopropargyl)-pyrrolidinium 4-methybenzenesulfonate]
19 |  |  |  |  |  |  |  | 250 | 32 | 32 | 32 | > 250 | > 250 |  |  |  |  |  |  |  | OCCCCCCCCCCCC[N+]1(CC#CI)CCCC1 [Compound 2, 1-(12-hydroxydodecyl)-l-(3-iodopropargyl)-pyrrolidinium 4-methylbenzenesulfonate]
20 |  |  |  |  |  |  |  | 250 | 250 | 16 | 32 | 250 | 125 |  |  |  |  |  |  |  | OCC[N+]1(CC#CI)CCCCC1 [Compound 18, 1-(2-hydroxyethyl)-1-(3-iodopropargyl)-piperidinium 4-methylbenzenesulfonate]
